In patent US11827628B2, “Compositions and methods for inhibition of the JAK pathway” (Rigel Pharmaceuticals, Inc., priority 2005, dated 2023):
Like-named read-outs stand apart in the source and are kept apart here.

How the values were obtained:
[1] = system: up-regulation of ICAM-1 (CD54) by IFNγ in A549 lung epithelial cells; assay: A549 Epithelial Line Stimulated with IFNγ (ICAM-1 surface expression, FACS); format: cell-based, human; conditions: ICAM-1 expression by FACS, read-out: IC50, Example 43
Summary of the method: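 ICAM-1 (CD54) flow cytometry on live-gated A549 cells, geometric mean versus dose giving EC50. Cells received IFNγ at 75 ng/mL for 24 h after a 1 h compound pre-treatment spanning 30 μM to 14 nM in medium with 5% FBS and 0.3% DMSO.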

[2] = system: Primary human T-cells; assay: Primary Human T-Cell Proliferation Assay Stimulated with IL-2 (CellTiter-Glo); format: cell-based; conditions: read-out: IC50, Example 42
Summary of the method: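 IC50 derived from CellTiter-Glo ATP signal after 72 hours of IL-2-driven proliferation at 37° C. Cells: primary human T-cells from blood, stimulated beforehand 3-4 days on anti-CD3/anti-CD28 with IL-2, then rested from IL-2 before compound exposure in duplicate; IL-2-free wells served as unstimulated control.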

| IC50 ([1]; A549 cells stimulated with IFNγ) [µM] | IC50 ([1]; A549 epithelial line stimulated with IFNγ) [µM] | Structure (SMILES) | IC50 ([2]; primary human T-cells stimulated with IL-2, proliferation) [µM] | IC50 ([2]; primary human T-cell proliferation stimulated with IL-2) [µM] |
| --- | --- | --- | --- | --- |
| 18.7 |  | C#CCOc1ccc(Nc2nc(Nc3ccc(C)c(S(=O)(=O)NC4CCN(C)CC4)c3)ncc2F)cc1 [VI-69, 5-Fluoro-N2-{[4-methyl-3-((1-methylpiperidin-4-yl)aminosulfonyl)]phenyl} N4-[4-(prop-2-ynyloxy)phenyl]-2,4-pyrimidinediamine] | 1.34 |  |
|  | 17.6 | Cc1ccc(Nc2ncc(F)c(Nc3ccc(OCC#N)c(F)c3)n2)cc1S(N)(=O)=O [Compound I-11, N2-(3-Aminosulfonyl-4-methylphenyl)-5-fluoro-N4-(4-cyanomethyleneoxy-3-fluorophenyl)-2,4-pyrimidinediamine] |  | 0.0393 |
